According to ChEMBL document CHEMBL5728358, “JAK1 selective inhibitors” (2021):

Biological target: Tyrosine-protein kinase JAK1 (Homo sapiens, UniProt P23458)
Experiment: JAK enzyme was expressed as N-terminal GST fusion in insect cells and purified by glutathione-affinity and size-exclusion chromatographies. […] Phosphorylated and unphosphotylated peptides were separated and quantified by a Caliper LC3000 system (Caliper Life Sciences, MA) for calculating percent inhibition.
Assay type: organism-based

Sequence of Tyrosine-protein kinase JAK1 (P23458 whole entry, the tested form may be a part): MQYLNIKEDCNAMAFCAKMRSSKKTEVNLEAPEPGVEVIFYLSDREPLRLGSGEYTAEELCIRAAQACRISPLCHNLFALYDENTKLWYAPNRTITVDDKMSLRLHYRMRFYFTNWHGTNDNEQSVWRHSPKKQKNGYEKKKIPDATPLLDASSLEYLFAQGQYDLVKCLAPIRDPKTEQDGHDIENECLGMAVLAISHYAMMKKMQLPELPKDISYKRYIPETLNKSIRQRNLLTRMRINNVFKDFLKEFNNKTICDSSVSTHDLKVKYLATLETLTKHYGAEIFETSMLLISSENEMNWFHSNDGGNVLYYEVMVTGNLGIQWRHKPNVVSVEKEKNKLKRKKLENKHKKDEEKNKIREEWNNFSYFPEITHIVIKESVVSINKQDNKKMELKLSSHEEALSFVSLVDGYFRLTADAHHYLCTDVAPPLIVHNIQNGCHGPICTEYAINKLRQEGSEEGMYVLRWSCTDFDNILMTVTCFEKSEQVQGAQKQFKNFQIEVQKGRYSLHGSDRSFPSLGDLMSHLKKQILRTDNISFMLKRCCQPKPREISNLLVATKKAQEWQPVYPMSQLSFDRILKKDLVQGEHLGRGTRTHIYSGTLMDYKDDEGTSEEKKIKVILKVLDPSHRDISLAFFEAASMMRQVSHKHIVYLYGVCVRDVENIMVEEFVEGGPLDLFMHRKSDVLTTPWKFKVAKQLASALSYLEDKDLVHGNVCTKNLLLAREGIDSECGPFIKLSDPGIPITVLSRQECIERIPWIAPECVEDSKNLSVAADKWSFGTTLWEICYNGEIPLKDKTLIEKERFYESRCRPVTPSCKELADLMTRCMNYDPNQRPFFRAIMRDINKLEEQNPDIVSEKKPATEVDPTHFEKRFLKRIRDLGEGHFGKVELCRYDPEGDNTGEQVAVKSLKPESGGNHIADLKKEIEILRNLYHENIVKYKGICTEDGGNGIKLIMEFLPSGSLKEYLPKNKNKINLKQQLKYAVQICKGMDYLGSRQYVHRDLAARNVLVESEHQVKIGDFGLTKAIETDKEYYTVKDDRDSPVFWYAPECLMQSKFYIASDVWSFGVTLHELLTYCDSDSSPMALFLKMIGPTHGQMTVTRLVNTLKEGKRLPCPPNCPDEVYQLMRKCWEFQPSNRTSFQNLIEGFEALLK

Cc1cnc(Nc2cccc(S(C)(=O)=O)c2F)nc1-c1c[nH]c2c(NC(=O)[C@@H](C)N3C[C@H](C)N[C@@H](C)C3)cccc12
IC50: 3.4 nM
